Test results: BindingDB's records for doi:10.1016/j.ejmech.2021.113681 (Moscow State University, 2021)

Test: Inhibition of gp120 in HIV-1 subtype B #11578 harboring pseudotyped Env pWEAUd15.410.5017 infected in human TZM-bl cells assessed as reduction in viral infection pretreated for 30 mins before viral infection and measured after 3 days by luciferase based single cycle infection assay
Compound `Cc1nc([C@@H](CN)NC(=O)C(=O)Nc2ccc(Cl)cc2)sc1CO` has an IC50 of over 27 µM.
With `Cc1nc([C@H](CN)NC(=O)C(=O)Nc2ccc(Cl)cc2)sc1CO` the IC50 was over 27 µM.
Work on `Cc1nc([C@@H](CCN)NC(=O)C(=O)Nc2ccc(Cl)cc2)sc1CO` yielded an IC50 of over 15 µM.
In the case of `Cc1nc([C@H](CCN)NC(=O)C(=O)Nc2ccc(Cl)cc2)sc1CO`, the IC50 is reported as over 15 µM.
`NC[C@@H](NC(=O)C(=O)NCc1ccc(Cl)c(F)c1)c1ncc(CO)s1` showed an IC50 of over 15 µM.
`NC[C@H](NC(=O)C(=O)NCc1ccc(Cl)c(F)c1)c1ncc(CO)s1` showed an IC50 of over 15 µM.
With `NC[C@@H](NC(=O)CNCc1ccc(Cl)cc1)c1ncc(CO)s1` the IC50 was over 23.4 µM.
With `NC[C@H](NC(=O)CNCc1ccc(Cl)cc1)c1ncc(CO)s1` the IC50 was over 23.4 µM.
With `NC[C@@H](NC(=O)c1ccc(-c2ccc(Cl)cc2)[nH]1)c1nccs1` the IC50 was 3.3 µM.
`NC[C@H](NC(=O)c1ccc(-c2ccc(Cl)cc2)[nH]1)c1nccs1` gave an IC50 of 0.8 µM.
Compound `NCCNC(=O)c1ccc(-c2ccc(Cl)c(F)c2)[nH]1` has an IC50 of 3.8 µM.
`O=C(NC1CCNCC1)c1ccc(-c2ccc(Cl)c(F)c2)[nH]1` gave an IC50 of 6.6 µM.
`CC1(C)CC(NC(=O)c2ccc(-c3ccc(Cl)c(F)c3)[nH]2)CC(C)(C)N1` gave an IC50 of 6.2 µM.
`O=C(NC1(c2nc(CO)cs2)CCNCC1)c1ccc(-c2ccc(C(F)(F)F)cc2)[nH]1` showed an IC50 of 11.4 µM.
`O=C(N[C@H](CC1CCNCC1)c1nc(CO)cs1)c1ccc(-c2ccc(C(F)(F)F)cc2)[nH]1` showed an IC50 of 12.4 µM.
`O=C(N[C@@H](CC1CCNCC1)c1nc(CO)cs1)c1ccc(-c2ccc(C(F)(F)F)cc2)[nH]1` gave an IC50 of 8.5 µM.
Work on `Cc1nc([C@@H](CN)NC(=O)NC(=O)c2ccc(Cl)cc2)sc1CO` yielded an IC50 of over 54 µM.
Compound `Cc1nc([C@H](CN)NC(=O)NC(=O)c2ccc(Cl)cc2)sc1CO` has an IC50 of over 54 µM.
Work on `NC[C@@H](NC(=O)c1ccc(C2CCCCC2)[nH]1)c1ncc(CO)s1` yielded an IC50 of over 28 µM.
Compound `NC[C@H](NC(=O)c1ccc(C2CCCCC2)[nH]1)c1ncc(CO)s1` has an IC50 of over 28 µM.
In the case of `NC[C@@H](NC(=O)c1ccc(OCC2CCCCC2)cc1)c1ncc(CO)s1`, the IC50 is reported as over 15 µM.
`NC[C@H](NC(=O)c1ccc(OCC2CCCCC2)cc1)c1ncc(CO)s1` showed an IC50 of over 15 µM.
With `NC[C@@H](NC(=O)c1ccc(NCC2CCCCC2)cc1)c1ncc(CO)s1` the IC50 was over 15 µM.
`NC[C@H](NC(=O)c1ccc(NCC2CCCCC2)cc1)c1ncc(CO)s1` gave an IC50 of over 15 µM.
`NC[C@@H](NC(=O)Cc1ccc(OCC2CCCCC2)cc1)c1ncc(CO)s1` showed an IC50 of over 25 µM.
Work on `NC[C@H](NC(=O)Cc1ccc(OCC2CCCCC2)cc1)c1ncc(CO)s1` yielded an IC50 of over 25 µM.
Compound `Cc1nc([C@@H](CN)NC(=O)c2cc3ccccc3[nH]2)sc1CO` has an IC50 of over 60 µM.
In the case of `Cc1nc([C@H](CN)NC(=O)c2cc3ccccc3[nH]2)sc1CO`, the IC50 is reported as over 60 µM.
Work on `Cc1nc([C@@H](CN)NC(=O)c2cc3cc(Cl)ccc3[nH]2)sc1CO` yielded an IC50 of over 40 µM.
Work on `Cc1nc([C@H](CN)NC(=O)c2cc3cc(Cl)ccc3[nH]2)sc1CO` yielded an IC50 of over 40 µM.
